Experimental findings from patent publication US12551565B2, “CD44 targeted multi-arm conjugate” (priority 2019, dated 2026) are described below.

For the assay, the system named is human small cell lung cancer cell NCI-H446. The assay can be described thus: Xenograft model of human small cell lung cancer cell NCI-H446 in nude mice. The conditions noted are these: tail vein injection, QW×3, 6 mg·kg^−1. It is filed as in vivo, BALB/c nude mice. On the technique in general: A xenograft is tissue or cells of one species grown in another, often human tumour cells in immunodeficient mice.

Molecules are shown by their SMILES.

Take `CCc1c2c(nc3ccc(OC(=O)N4CCC(N5CCCCC5)CC4)cc13)-c1cc3c(c(=O)n1C2)COC(=O)[C@]3(O)CC` [Irinotecan]: the “Relative tumor proliferation rate (% T/C)” value is on record as 66.0%.
